Article PMC7082753, “Hazards of Using Masking Protocols When Performing Ligand Binding Assays: Lessons From the Sigma-1 and Sigma-2 Receptors” (Frontiers in Pharmacology, 2020)
Like-named read-outs stand apart in the source and are kept apart here.

Assays:
sigma-1 receptor [1] = experiment: Saturation binding of [³H] (+) pentazocine to MCF7 cell membranes; parameters: species or system human
Procedure: MDA-MB-468 cells were maintained in DMEM, high glucose (41965-062) supplemented with 10% foetal calf serum. MCF7 cells were maintained in MEM (M2279) supplemented with 2 mM L-glutamine and 10% foetal calf serum. Cells were cultured at 37°C in a humidified incubator with 5% CO2. […] The supernatant was discarded and the pellet suspended in SBB.
Assays (total volume 100 µl) were performed using 0–300 nM [^3H] […] Non-specific binding was determined using 1 mM reduced haloperidol ([Schetz et al., 2007]). […] Assays were terminated by addition of ice-cold tris-buffered saline (TBS: 154 mM NaCl, 10 mM Tris, pH 7.4) and filtration through glass fibre filters (GF/B, Sigma-Aldrich, Poole, UK) using a cell harvester. Tubes and filter discs were washed (2 x 3 ml) with ice-cold TBS, and the filter discs dried under vacuum. Scintillation counting was carried out in ProSafe FC+ cocktail (Meridian Biotechnologies Ltd, Tadworth, UK) after overnight incubation.

sigma-1 receptor [2] = molecular target: T1, sigma-1 receptor (Homo sapiens, UniProt Q99720); type: binding; conditions: MDA-MB-468; two-site analysis
T1 construct: sigma-1 receptors in membranes prepared from MDA-MB-468 cells; endogenous in cells; host or cells: MDA-MB-468 (ATCC HTB-132) cell membranes
T1 sequence (Q99720 whole entry): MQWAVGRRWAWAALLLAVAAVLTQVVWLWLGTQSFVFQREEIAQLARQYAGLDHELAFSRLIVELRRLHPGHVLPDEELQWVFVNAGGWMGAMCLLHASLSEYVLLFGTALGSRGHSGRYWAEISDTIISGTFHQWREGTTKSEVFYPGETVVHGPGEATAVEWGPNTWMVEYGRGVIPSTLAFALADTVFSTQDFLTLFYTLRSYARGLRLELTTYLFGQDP
Procedure: (§1) Competition binding assays (total volume 100 μl) were performed using a final assay concentration of 50 nM, 100 nM, or 1 µM [^3H] […] Alternatively, 10–30 nM [³H] […] The assay was then allowed to equilibrate at room temperature for 4 h. […] Tubes and filter discs were washed with ice-cold TBS (2 x 3 ml), and the filter discs dried under vacuum.

sigma-1 receptor [3] = conditions: not affected by GTP or suramin; ref Brimson et al., 2011; cited from earlier work
sigma sites = conditions: spinal cord; competition experiments; ref Kovacs and Larson, 1995; cited from earlier work
sigma-2 receptor [4] = conditions: PC12 cells, ref Hellewell and Bowen, 1990, cited from earlier work
sigma-2 receptor [5] = molecular target: T2, sigma-2 receptor (Homo sapiens, UniProt Q5BJF2); experiment: Two-site competition of (+) pentazocine with [³H] DTG in MDA-MB-468 membranes, low-affinity site; type: binding; parameters: endogenous in cells; conditions: two-site analysis
T2 sequence (Q5BJF2 whole entry): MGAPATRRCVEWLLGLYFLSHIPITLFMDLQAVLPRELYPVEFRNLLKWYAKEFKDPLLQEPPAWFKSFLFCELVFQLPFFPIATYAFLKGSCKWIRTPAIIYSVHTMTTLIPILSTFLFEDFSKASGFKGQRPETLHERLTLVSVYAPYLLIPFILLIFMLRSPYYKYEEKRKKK
Procedure: as §1

sigma-2 receptor [6] = molecular target: T2, sigma-2 receptor; experiment: [³H] DTG saturation binding to MCF7 membranes in absence or presence of (+) pentazocine; parameters: from sigma-2 receptors in membranes prepared from MCF7 cells; endogenous in cells; host or cells: MCF7 (ATCC HTB-22) cell membranes
Procedure: (§2) Assays (total volume 100 μl) were performed at room temperature for 4 h with 1–300 nM [^3H] […] Assays were terminated by addition of ice-cold TBS and filtration through glass fibre filters (GF/C, Sigma-Aldrich, Poole, UK) using a cell harvester. Tubes and filter discs were washed with ice-cold TBS (2 x 3 ml) and the filter discs dried under vacuum. Scintillation counting was carried out in ProSafe FC+ cocktail after overnight incubation.

sigma receptors = experiment: Saturation binding of pan-sigma ligand [³H] DTG to MDA-MB-468 cell membranes; parameters: species or system human; conditions: MDA-MB-468 membranes; n = 3
Procedure: as §2

[7] = test system: residual binding sites for [³H] DTG in TMEM97 knock-out HeLa cells; conditions: cited from earlier work
sigma-1 receptor [8] = experiment: Literature dextrallorphan competition against [³H] PPP (Largent et al.); type: binding; conditions: data of ref Largent et al., 1987
sigma-2 receptor [9] = experiment: Literature [³H] DTG and [³H] PPP binding in PC12 cells and affinity estimated from it; parameters: species or system rat; conditions: for K30: 30 % displacement; for Ki: data of ref Hellewell and Bowen, 1990
Source text: Calculations for saturation binding are based on non-linear analysis of idealised data.

sigma-1 receptor [10] = conditions: ref Hellewell and Bowen, 1990; read-out: Ki (sigma-1 affinity); cited from earlier work
sigma-1 receptor [11] = molecular target: sigma-1 receptor; parameters: method as in Largent et al., 1987; conditions: ref Largent et al., 1987, cited from earlier work
sigma-2 receptor [12] = molecular target: sigma-2 receptor; parameters: method as in Hou et al., 2006; Zeng et al., 2019; conditions: ref Hou et al., 2006; Zeng et al., 2019; cited from earlier work
sigma-1 receptor [13] = molecular target: sigma-1 receptor; parameters: method as in Hou et al., 2006; Zeng et al., 2019; conditions: ref Hou et al., 2006; Zeng et al., 2019; cited from earlier work

In the case of `CC(C)=CCN1CC[C@]2(C)c3cc(O)ccc3C[C@H]1[C@H]2C` [(+) pentazocine, (1S,9S,13S)-1,13-dimethyl-10-(3-methylbut-2-en-1-yl)-10-azatricyclotrideca-2,4,6-trien-4-ol], the specific binding (sigma-1 receptor [1]) is listed as “no specific binding”, the “% of sites with high affinity” value (sigma-1 receptor [2]) is listed as 36% and the Hill slope (sigma-1 receptor [3]) is listed as “unity”. The “[³H] DTG displaced with high affinity” value (sigma sites) was 30%, the “displacement of DTG and PPP binding” value (sigma-2 receptor [4]) was “low-affinity” and the “% of sites with low affinity” value (sigma-2 receptor [5]) was 64%. The “effect on Bmax of [³H] DTG” value (sigma-2 receptor [6]; 100 nM (+) pentazocine) was “did not affect” and the “effect on calculated Bmax of [³H] DTG” value (sigma-2 receptor [6]; 1 µM (+) pentazocine) was “did not affect”.

For `Cc1ccccc1NC(=N)Nc1ccccc1C` [DTG, 1,3-di-O-tolylguanidine], the pKd (sigma receptors) is given as 7.88 ± 0.01 and the Kd ([7]; presence of 1 μM (+) pentazocine, ref Riad et al., 2018, Zeng et al., 2019, read-out: apparent Kd) is given as 0.3 to 0.4 µM.

For `C=CCN1CC[C@@]23CCCC[C@@H]2[C@@H]1Cc1ccc(O)cc13` [dextrallorphan], the Ki (sigma-1 receptor [8]; Cheng-Prusoff correction of IC50 163 nM, read-out: Ki) was 0.153 to 0.158 µM, the Ki (sigma-1 receptor [8]; lowest calculated affinity, from Ki 153-158 nM, read-out: sigma-1 affinity used for modelling) was 0.155 µM and the K30 (sigma-2 receptor [9]; calculated using DTG (5 nM, Kd […])) was 18.76 µM. It also gave a K30 (sigma-2 receptor [9]; calculated using PPP (3 nM, Kd 86.3 nM)) of 6.55 µM, a Ki (sigma-2 receptor [9]; estimated from DTG data in PC12 cells) of 44.7 µM and a Ki (sigma-2 receptor [9]; estimated from PPP data in PC12 cells) of 15 µM. The Ki (sigma-1 receptor [10]) was 0.0161 µM, the IC50 (sigma-1 receptor [11]; against 1-2 nM [³H] PPP) was 0.163 µM and the “displacement of [³H] DTG or [³H] PPP” value (sigma-2 receptor [4]; 5 μM dextrallorphan) was “less than 30%”.

For `COc1cc2c(cc1OC)CN(CCCCNC(=O)c1cc(I)cc(OC)c1OC)CC2` [RHM-4], the “detection of residual binding when used as radioligand” value ([7]; ref Zeng et al., 2019) is listed as “unable to detect this residual binding”, the Ki (sigma-2 receptor [12]) is listed as 0.0082 µM and the Ki (sigma-1 receptor [13]) is listed as 12.9 µM.

In the case of `CCCN1CCCC(c2cccc(O)c2)C1` (single isomer, unassigned; (+)) [PPP, (+)-3-(3-hydroxyphenyl)-N-(1-propyl)piperidine], the Kd (sigma-1 receptor [11]; radioligand [³H] PPP) is given as 0.03 µM and the Kd (sigma-2 receptor [4]; PPP) is given as 0.0863 µM.
